These are literature values, as cited in patent US20110268770A1, “CHEWABLE GELLED EMULSIONS” (PROBIO ASA, priority 2008, published 2011).

For this series the following is noted: commercially available statins.
With `CC[C@H](C)C(=O)O[C@H]1C[C@@H](C)C=C2C=C[C@H](C)[C@H](CC[C@@H]3C[C@@H](O)CC(=O)O3)[C@H]21` [lovastatin], the “solubility class (water-soluble or lipid-soluble)” value (from here on “solubility class”) is on record as “lipid-soluble”. For the molecule `CC[C@H](C)C(=O)O[C@H]1C[C@H](O)C=C2C=C[C@H](C)[C@H](CC[C@@H](O)C[C@@H](O)CC(=O)O)[C@H]21` [pravastatin], the “solubility class” value is “water-soluble”. For `CC(C)c1nc(N(C)S(C)(=O)=O)nc(-c2ccc(F)cc2)c1/C=C/[C@@H](O)C[C@@H](O)CC(=O)O` [rosuvastatin], the “solubility class” value was “water-soluble”.
